Broadly, the melting point is the temperature of the solid-liquid transition.

Consider 1 compound from patent publication US20050020616A1, “Aryl fused azapolycyclic compounds” (Pfizer Inc, priority 2003, published 2005).

Structures are written as SMILES. Counter-ions that a name gives are not always drawn.

Take `O=[N+]([O-])c1ccc2c(c1)C1CCC2CNC1` (stereo not shown) (as salt: hydrochloride): the melting point turned out to be 252 °C.
